How the values were obtained:
[1] = Cell viability in pre-screen (Table 1); assay type: cell-based
[2] = system: TNF; assay: Pre-screen for TNF inhibition activity of synthesized molecules (Table 1); assay type: cell-based

| Compound | % Viability ([1]; 1 uM) | % Viability ([1]; 10 uM) | % Viability ([1]; 50 uM) | % Viability ([1]; 100 uM) | % TNF Inhibition ([2]; 1 uM) | % TNF Inhibition ([2]; 10 uM) | % TNF Inhibition ([2]; 50 uM) | % TNF Inhibition ([2]; 100 uM) |
| --- | --- | --- | --- | --- | --- | --- | --- | --- |
| 2,3-Di-O-acetyl-4-O-chloroacetyl-6-O-levulinoyl-β-D-glucopyranosyl)-(1-3)-2-deoxy-2-trichloroacetamido-α/β-D-glucopyranoside [RSCL-0632] | 115% | 113% | 94% | 84% | 0% | 0% | 0% | 30% |
| COc1ccc(O[C@@H]2O[C@H](COC(C)=O)[C@@H](OC(C)=O)[C@H](OC(C)=O)[C@H]2OC(C)=O)cc1 [RSCL-0367, 1-O-(p-Methoxyphenyl)-2,3,4,6-tetra-O-acetyl-β-D-Glucopyranoside] | 114% | 118% | 105% | 116% | 0% | 0% | 0% | 0% |
| COc1ccc(O[C@@H]2O[C@@H]3COC(c4ccccc4)O[C@H]3[C@H](O)[C@H]2O)cc1 (stereo partly drawn) [RSCL-0370, 1-O-(p-Methoxyphenyl)-4,6-O-benzylidene-β-D-glucopyranoside] | 115% | 120% | 108% | 107% | 0% | 0% | 0% | 16% |
| COc1ccc(O[C@@H]2O[C@H](COC(=O)CCC(C)=O)[C@@H](OC(=O)CCl)[C@H](OC(C)=O)[C@H]2OC(C)=O)cc1 [RSCL-0393, 1-O-(p-Methoxyphenyl)-2,3-di-O-acetyl-4-O-chloroacetyl-6-O-levulinoyl-β-D-glucopyranoside] | 84% | 85% | 81% | 86% | 2% | 13% | 18% | 76% |
| COc1ccc(O[C@H]2O[C@@H]3COC(c4ccccc4)O[C@H]3[C@H](O)[C@H]2NC(=O)C(Cl)(Cl)Cl)cc1 (stereo partly drawn) [RSCL-0400, 1-O-(p-Methoxyphenyl)-2-deoxy-2-trichloroacetamido-4,6-O-benzylidene-α-D-glucopyranoside] | 93% | 82% | 70% | 63% | 0% | 0% | 0% | 0% |
| COc1ccc(O[C@H]2O[C@@H]3COC(c4ccccc4)O[C@H]3[C@H](O[C@@H]3O[C@H](COC(=O)CCC(C)=O)[C@@H](O)[C@H](OC(C)=O)[C@H]3OC(C)=O)[C@H]2NC(=O)C(Cl)(Cl)Cl)cc1 (stereo partly drawn) [RSCL-0440, p-Methoxy phenyl-O-(2,3-di-O-acetyl-6-O-levulinoyl-β-D-glucopyranosyl)-(1-3)-2-deoxy-2-trichloroacetamido-4,6-O-benzylidene-α D-glucopyranoside] | 114% | 115% | 129% | 119% | 34% | 42% | 46% | 47% |
| COc1ccc(O[C@H]2O[C@@H]3COC(c4ccccc4)O[C@H]3[C@H](O[C@@H]3O[C@H](COC(=O)CCC(C)=O)[C@@H](OS(=O)(=O)O)[C@H](OC(C)=O)[C@H]3OC(C)=O)[C@H]2NC(=O)C(Cl)(Cl)Cl)cc1 (stereo partly drawn) [RSCL-0621, p-Methoxy phenyl-O-(2,3-di-O-acetyl-4-O-sulfo-6-O-levulinoyl-β-D-glucopyranosyl)-(1-3)-2-deoxy-2-trichloroacetamido-4,6-O-benzylidene-α-D-glucopyranoside] | 90% | 95% | 98% | 96% | 36% | 38% | 49% | 66% |
| COc1ccc(O[C@H]2O[C@@H]3COC(c4ccccc4)O[C@H]3[C@H](O[C@@H]3O[C@H](COC(=O)CCC(C)=O)[C@@H](OC(C)=O)[C@H](OC(C)=O)[C@H]3OC(C)=O)[C@H]2NC(=O)C(Cl)(Cl)Cl)cc1 (stereo partly drawn) [RSCL-0625, p-Methoxy phenyl-O-(2,3,4-tri-O-acetyl-6-O-levulinoyl-β-D-glucopyranosyl)-(1-3)-2-deoxy-2-trichloroacetamido-4,6-O-benzylidene-α-D-glucopyranoside] | 90% | 96% | 99% | 97% | 31% | 27% | 22% | 31% |
| COc1ccc(O[C@H]2O[C@@H]3COC(c4ccccc4)O[C@H]3[C@H](O[C@@H]3O[C@H](CO)[C@@H](OC(C)=O)[C@H](OC(C)=O)[C@H]3OC(C)=O)[C@H]2NC(=O)C(Cl)(Cl)Cl)cc1 (stereo partly drawn) [RSCL-0626, p-Methoxy phenyl-O-(2,3,4-tri-O-acetyl-β-D-glucopyranosyl)-(1-3)-2-deoxy-2-trichloroacetamido-4,6-O-benzylidene-α-D-glucopyranoside] | 97% | 92% | 95% | 89% | 39% | 43% | 13% | 52% |
| CC(=O)CCC(=O)OC[C@H]1O[C@@H](O[C@H]2[C@@H]3OC(c4ccccc4)OC[C@H]3OC(O)[C@@H]2NC(=O)C(Cl)(Cl)Cl)[C@H](OC(C)=O)[C@@H](OC(C)=O)[C@@H]1OC(=O)CCl (stereo partly drawn) [RSCL-0627, 2,3-Di-O-acetyl-4-O-chloroacetyl-6-O-levulinoyl-β-D-glucopyranosyl-(1-3)-2-deoxy-2-trichloroacetamido-4,6-O-benzylidene-α/β-D-glucopyranoside] | 105% | 90% | 33% | 13% | 0% | 80% | 104% | 100% |
| COc1ccc(O[C@H]2O[C@@H]3COC(c4ccccc4)O[C@H]3[C@H](O[C@@H]3O[C@H](CO)[C@@H](O)[C@H](OC(C)=O)[C@H]3OC(C)=O)[C@H]2NC(=O)C(Cl)(Cl)Cl)cc1 (stereo partly drawn) [RSCL-0628, p-Methoxy phenyl-O-(2,3-di-O-acetyl-β-D-glucopyranosyl)-(1-3)-2-deoxy-2-trichloroacetamido-4,6-O-benzylidene-α-D-glucopyranoside] | 89% | 60% | 10% | 8% | 0% | 92% | 102% | 100% |
| COc1ccc(O[C@H]2O[C@@H]3COC(c4ccccc4)O[C@H]3[C@H](O[C@@H]3O[C@H](CO)[C@@H](OC(=O)CCl)[C@H](OC(C)=O)[C@H]3OC(C)=O)[C@H]2NC(=O)C(Cl)(Cl)Cl)cc1 (stereo partly drawn) [RSCL-0629, p-Methoxy phenyl-O-(2,3-di-O-acetyl-4-O-chloroacetyl-β-D-glucopyranosyl)-(1-3)-2-deoxy-2-trichloroacetamido-4,6-O-benzylidene-α-D-glucopyranoside] | 99% | 57% | 13% | 11% | 0% | 94% | 102% | 100% |
| COc1ccc(O[C@H]2O[C@@H]3COC(c4ccccc4)O[C@H]3[C@H](O[C@@H]3O[C@H](COC(=O)CCl)[C@@H](OC(C)=O)[C@H](OC(C)=O)[C@H]3OC(C)=O)[C@H]2NC(=O)C(Cl)(Cl)Cl)cc1 (stereo partly drawn) [RSCL-0630, p-Methoxy phenyl-O-(2,3,4-tri-O-acetyl-6-O-chloroacetyl-β-D-glucopyranosyl)-(1-3)-2-deoxy-2-trichloroacetamido-4,6-O-benzylidene-α-D-glucopyranoside] | 95% | 88% | 85% | 81% | 31% | 36% | 61% | 0% |
| COc1ccc(OC2OC3COC(c4ccccc4)OC3C(OC3OC(COC(=O)CCl)C(OC(=O)CCl)C(OC(C)=O)C3OC(C)=O)C2NC(=O)C(Cl)(Cl)Cl)cc1 [RSCL-0631, p-Methoxy phenyl-O-(2,3-di-O-acetyl-4,6-di-O-chloroacetyl-β-D-glucopyranosyl)-(1-3)-2-deoxy-2-trichloroacetamido-4,6-O-benzylidene-α-D-glucopyranoside] | 95% | 70% | 20% | 8% | 77% | 38% | 92% | 99% |
